System: hypertensive subjects
Assay: Seated automated office blood pressure (AOBP) in randomized, placebo-controlled, dose-ranging study
Type: in vivo, human
Conditions: Part 1, 100 mg QD
Description: A randomized, double-blinded, placebo-controlled, dose-ranging, multicenter study was conducted to evaluate the effect of orally administered Compound A HBr on blood pressure for the treatment of hypertension in male and female subjects ≥18 years of age.
The study consists of two parts. For enrollment into Part 1 of the study, a subject's value of plasma renin activity (PRA) must be ≤1 ng/mL/h based on morning measurement. If the value of PRA >1 ng/mL/h based on morning measurement, then subjects may be eligible to enter Part 2 of the study.
For Part 1, 163 enrolled subjects ≥18 years of age were randomized into 6 equal treatment groups (1:1:1:1:1:1) to 12.5 mg BID, 25 mg BID, 12.5 mg QD, 50 mg QD, 100 mg QD, or placebo. After a review of interim clinical data, the 2 lowest dose levels (12.5 mg QD and 12.5 mg BID) were stopped for future randomization due to a lack of consistent meaningful reduction of blood pressure, but the patients randomized to that point remained in the study through completion. Thus, after the review of interim clinical data, subjects were randomized into 4 equal treatment groups (1:1:1:1) to 25 mg BID, 50 mg QD, 100 mg QD, or placebo.
For Part 2, 36 enrolled subjects ≥18 years of age were randomized (5:1) to either 100 mg QD Compound A HBr or placebo such that the Compound A HBr treatment group consisted of approximately 30 subjects and the placebo treatment group will consist of approximately 6 subjects.
Subjects orally administered the assigned study drug (Compound A HBr or placebo) according to the assigned dosing regimen for 8 weeks beginning on Study Day 1. All subjects in Part 1 (regardless of dosing group) received BID dosing to preserve the integrity of the blind; active drug is administered as the morning dose for all QD dose groups. Subjects returned to the research facility or were seen by the clinical investigator or approved home health care professional at the end of Study Weeks 1, 2, 3, 4, 5, 6, 7, and 8 (±2 days) for protocol-defined efficacy and safety assessments and procedures, assessment of adverse events (AEs), and confirmation of compliance with study drug usage. Subjects also completed a telephone visit and blood pressure (BP) check at home approximately 3 days post last dose of study drug. Subjects attended up to 14 full clinic visits, including a pre-Screening visit, a Screening/start of Placebo Run-in visit, a second visit during Placebo Run-in, a clinic visit to initiate the ABPM procedure, a Randomization visit, 8 weekly visits during double-blind treatment, and an end-of-study visit scheduled 4 weeks after the last study treatment for final efficacy and safety assessments.
An automated oscillometric sphygmomanometer device was used to measure the subjects' systolic and diastolic blood pressure in office after approximately 5 minutes of rest in the seated position.
The primary endpoint is the change in office-measured (mean of last 2 of 5 unattended measurements using an automated oscillometric sphygmomanometer device after approximately 5 minutes of rest in the seated position) systolic blood pressure (SBP) from baseline to the end of Study Week 8.
Secondary endpoints of this study were: • (a) Change in 24-hour ambulatory blood pressure monitoring (ABPM) parameters (systolic and diastolic) from baseline to the end of Study Week 7. • (b) Change in office-measured SBP from baseline to the end of Study Weeks 1, 2, 3, 4, 5, 6, and 7. • (c) Change in office-measured diastolic blood pressure (DBP) from baseline to the end of Study Weeks 1, 2, 3, 4, 5, 6, 7, and 8. • (d) Proportion of subjects who achieve office-measured BP of ≤130/80 mm Hg by the end of Study Week 8.

[1] = Systolic Blood Pressure Tertile at Baseline High
[2] = Systolic Blood Pressure Tertile at Baseline Low
[3] = Systolic Blood Pressure Tertile at Baseline Middle
[4] = Thiazide Diuretic Use at Baseline No

## CC(=O)N[C@H]1CC[C@H](NC(=O)CN2CCN(c3nncc(-c4ccc(C)cc4)n3)CC2)CC1 [Compound A HBr]
Age ≥80 yr
  Mean (SD) Automated Office-Measured Diastolic Blood Pressure at Wk 8: 65.75 (11.73) mmHg
  Mean (SD) Automated Office-Measured Systolic Blood Pressure at Wk 8: 125.00 (8.04) mmHg
  Mean (SD) Change from Baseline at Week 8 in Automated Office-Measured Diastolic Blood Pressure: −4.75 (8.03) mmHg
  Mean (SD) Change from Baseline at Week 8 in Automated Office-Measured Systolic Blood Pressure: −18.13 (12.34) mmHg
BMI 25−30 kg/m^2
  Mean (SD) Automated Office-Measured Diastolic Blood Pressure at Wk 8: 72.67 (9.33) mmHg
  Mean (SD) Change from Baseline at Week 8 in Automated Office-Measured Diastolic Blood Pressure: −6.50 (7.61) mmHg
BMI <25 kg/m^2
  Mean (SD) Automated Office-Measured Diastolic Blood Pressure at Wk 8: 78.33 (19.14) mmHg
  Mean (SD) Change from Baseline at Week 8 in Automated Office-Measured Diastolic Blood Pressure: −0.67 (7.01) mmHg
BMI >30 kg/m^2
  Mean (SD) Automated Office-Measured Diastolic Blood Pressure at Wk 8: 71.42 (7.10) mmHg
  Mean (SD) Change from Baseline at Week 8 in Automated Office-Measured Diastolic Blood Pressure: −6.88 (7.81) mmHg
BMI at baseline 25-30 kg/m^2
  Mean (SD) Automated Office-Measured Systolic Blood Pressure at Wk 8: 129.67 (10.05) mmHg
  Mean (SD) Change from Baseline at Week 8 in Automated Office-Measured Systolic Blood Pressure: −11.17 (11.94) mmHg
BMI at baseline <25 kg/m^2
  Mean (SD) Automated Office-Measured Systolic Blood Pressure at Wk 8: 146.00 (18.33) mmHg
  Mean (SD) Change from Baseline at Week 8 in Automated Office-Measured Systolic Blood Pressure: −7.83 (17.47) mmHg
BMI at baseline >30 kg/m^2
  Mean (SD) Automated Office-Measured Systolic Blood Pressure at Wk 8: 129.00 (15.28) mmHg
  Mean (SD) Change from Baseline at Week 8 in Automated Office-Measured Systolic Blood Pressure: −18.50 (13.40) mmHg
Race Black or AA
  Mean (SD) Automated Office-Measured Diastolic Blood Pressure at Wk 8: 71.92 (10.83) mmHg
  Mean (SD) Automated Office-Measured Systolic Blood Pressure at Wk 8: 129.92 (16.18) mmHg
  Mean (SD) Change from Baseline at Week 8 in Automated Office-Measured Diastolic Blood Pressure: −7.38 (7.65) mmHg
  Mean (SD) Change from Baseline at Week 8 in Automated Office-Measured Systolic Blood Pressure: −17.13 (11.55) mmHg
Race Other
  Mean (SD) Automated Office-Measured Diastolic Blood Pressure at Wk 8: 74.00 (8.26) mmHg
  Mean (SD) Automated Office-Measured Systolic Blood Pressure at Wk 8: 132.54 (12.47) mmHg
  Mean (SD) Change from Baseline at Week 8 in Automated Office-Measured Diastolic Blood Pressure: −3.69 (7.91) mmHg
  Mean (SD) Change from Baseline at Week 8 in Automated Office-Measured Systolic Blood Pressure: −11.27 (14.54) mmHg
Seated SBP Tertile High
  Mean (SD) Automated Office-Measured Diastolic Blood Pressure at Wk 8: 72.11 (11.78) mmHg
  Mean (SD) Change from Baseline at Week 8 in Automated Office-Measured Diastolic Blood Pressure: −8.78 (8.56) mmHg
Seated SBP Tertile Low
  Mean (SD) Automated Office-Measured Diastolic Blood Pressure at Wk 8: 73.86 (11.01) mmHg
  Mean (SD) Change from Baseline at Week 8 in Automated Office-Measured Diastolic Blood Pressure: −0.29 (6.44) mmHg
Seated SBP Tertile Middle
  Mean (SD) Automated Office-Measured Diastolic Blood Pressure at Wk 8: 73.22 (5.97) mmHg
  Mean (SD) Change from Baseline at Week 8 in Automated Office-Measured Diastolic Blood Pressure: 6.17 (6.64) mmHg
Sex Female
  Mean (SD) Automated Office-Measured Diastolic Blood Pressure at Wk 8: 70.87 (10.51) mmHg
  Mean (SD) Automated Office-Measured Systolic Blood Pressure at Wk 8: 132.40 (15.95) mmHg
  Mean (SD) Change from Baseline at Week 8 in Automated Office-Measured Diastolic Blood Pressure: −3.67 (7.27) mmHg
  Mean (SD) Change from Baseline at Week 8 in Automated Office-Measured Systolic Blood Pressure: −13.17 (12.05) mmHg
Sex Male
  Mean (SD) Automated Office-Measured Diastolic Blood Pressure at Wk 8: 76.20 (6.81) mmHg
  Mean (SD) Automated Office-Measured Systolic Blood Pressure at Wk 8: 129.60 (11.45) mmHg
  Mean (SD) Change from Baseline at Week 8 in Automated Office-Measured Diastolic Blood Pressure: −8.15 (8.28) mmHg
  Mean (SD) Change from Baseline at Week 8 in Automated Office-Measured Systolic Blood Pressure: −15.45 (15.48) mmHg
[1]
  Mean (SD) Automated Office-Measured Systolic Blood Pressure at Wk 8: 139.11 (15.36) mmHg
  Mean (SD) Change from Baseline at Week 8 in Automated Office-Measured Systolic Blood Pressure: −19.06 (12.91) mmHg
[2]
  Mean (SD) Automated Office-Measured Systolic Blood Pressure at Wk 8: 129.86 (9.26) mmHg
  Mean (SD) Change from Baseline at Week 8 in Automated Office-Measured Systolic Blood Pressure: −4.71 (8.58) mmHg
[3]
  Mean (SD) Automated Office-Measured Systolic Blood Pressure at Wk 8: 124.56 (13.30) mmHg
  Mean (SD) Change from Baseline at Week 8 in Automated Office-Measured Systolic Blood Pressure: −16.39 (13.97) mmHg
[4]
  Automated Office-Measured Diastolic Blood Pressure, Week 8, Mean (SD): 72.40 (10.54) mmHg
  Mean (SD) Automated Office-Measured Systolic Blood Pressure at Wk 8: 135.80 (9.10) mmHg

Reference: US20260053811A1, “METHODS OF TREATING HYPERTENSION IN OBESE SUBJECTS” (Mineralys Therapeutics, Inc., priority 2022, published 2026)
